Columns and labels:
Assay in all cases: Test 1A glasshouse assay, post-emergence herbicidal activity
Format in all cases: in vivo
[1] = tested on: Echinochloa crus-galli (ECHCG); conditions: Echinochloa crus-galli, 312 h, application rate 250 g/ha, 13 days after application, visual (100%=total damage; 0%=no damage), read-out: Post-emergence Herbicidal Activity (% Phytotoxicity) ECHCG
Procedure, shortened: (§1)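 Read-out is visual percent phytotoxicity 13 days post-spray, 100% meaning total plant damage and 0% none. Seedlings were treated after 8 days' glasshouse cultivation with an aqueous spray of active ingredient in acetone/water 50:50 plus 0.5% Tween 20.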

Avena fatua (AVEFA) = conditions: Avena fatua, 312 h, application rate 250 g/ha, 13 days after application, visual (100%=total damage; 0%=no damage), read-out: Post-emergence Herbicidal Activity (% Phytotoxicity) AVEFA
Procedure, shortened: as §1

Lolium perenne (LOLPE) = conditions: Lolium perenne, 312 h, application rate 250 g/ha, 13 days after application, visual (100%=total damage; 0%=no damage), read-out: Post-emergence Herbicidal Activity (% Phytotoxicity) LOLPE
Procedure, shortened: as §1

[2] = tested on: Alopecurus myosuroides (ALOMY); conditions: Alopecurus myosuroides, 312 h, application rate 250 g/ha, 13 days after application, visual (100%=total damage; 0%=no damage), read-out: Post-emergence Herbicidal Activity (% Phytotoxicity) ALOMY
Procedure, shortened: as §1

Compound	pest or weed control at 250 g/ha [1] [%]	pest or weed control at 250 g/ha (Avena fatua (AVEFA)) [%]	pest or weed control at 250 g/ha (Lolium perenne (LOLPE)) [%]	pest or weed control at 250 g/ha [2] [%]
Cc1cc(-n2cc(Cl)cn2)cc(C)c1C1C(=O)CC(CCNC(=O)c2ncccc2F)C1=O (stereo not drawn) [Compound A133]	100	90	100	100
Cc1cc(-n2cc(Cl)cn2)cc(C)c1C1C(=O)CC(CCNC(=O)c2cccc(Br)n2)C1=O (stereo not drawn) [Compound A134]	100	100	100	100
Cc1cc(-n2cc(Cl)cn2)cc(C)c1C1C(=O)CC(CCNC(=O)c2cccc(F)n2)C1=O (stereo not drawn) [Compound A135]	100	90	100	100
Cc1cc(-n2cc(Cl)cn2)cc(C)c1C1C(=O)CC(CCNC(=O)c2ccc(Br)cn2)C1=O (stereo not drawn) [Compound A136]	100	90	100	100
Cc1cc(-n2cc(Cl)cn2)cc(C)c1C1C(=O)CC(CCNC(=O)c2ccc(C#N)cn2)C1=O (stereo not drawn) [Compound A137]	100	70	80	80
Cc1cc(-n2cc(Cl)cn2)cc(C)c1C1C(=O)CC(CCNC(=O)c2cc(Cl)ccn2)C1=O (stereo not drawn) [Compound A138]	100	90	100	100
Cc1cc(-n2cc(Cl)cn2)cc(C)c1C1C(=O)CC(CCNC(=O)c2cccc(C(F)(F)F)n2)C1=O (stereo not drawn) [Compound A139]	90	90	100	90
Cc1cc(-n2cc(Cl)cn2)cc(C)c1C1C(=O)CC(CCNC(=O)c2nc(Cl)ccc2Br)C1=O (stereo not drawn) [Compound A140]	100	100	100	90
C#CCOc1cc(C)c(C2C(=O)CC(CCNC(=O)c3ccccn3)C2=O)c(C)c1 (stereo not drawn) [Compound A141A]	80	80	70	80
Cc1cc(-n2cc(Cl)cn2)cc(C)c1C1C(=O)CC(CCNC(=O)c2cc(Cl)cc(Cl)n2)C1=O (stereo not drawn) [Compound A141]	100	10	70	60
Cc1cc(-n2cc(C#N)cn2)cc(C)c1C1C(=O)CC(CCNC(=O)c2ccccn2)C1=O (stereo not drawn) [Compound A142, N-[2-[3-[4-(4-cyanopyrazol-1-yl)-2,6-dimethyl-phenyl]-2,4-dioxo-cyclopentyl]ethyl]pyridine-2-carboxamide]	100	90	100	100
Cc1cc(C)c(C2C(=O)CC(CCNC(=O)c3nc(Cl)sc3C)C2=O)c(C)c1 (stereo not drawn) [Compound A143]	100	90	100	90
Cc1cc(Cl)c(C2C(=O)CC(CCNC(=O)c3ncccc3F)C2=O)c(Cl)c1 (stereo not drawn) [Compound A144]	100	90	90	30
Cc1cc(C)c(C2C(=O)CC(CCNC(=O)c3cc(Cl)cc(Cl)n3)C2=O)c(C)c1 (stereo not drawn) [Compound A146]	100	40	70	60
Cc1cc(C)c(C2C(=O)CC(CCNC(=O)c3cccc(C#N)n3)C2=O)c(C)c1 (stereo not drawn) [Compound A147]	60	60	70	60
